Assay: Oral bioavailability after oral dosing at 5 mg kg-1
Type: ADME, organism-based
Settings: mouse, in vivo

bioavailability: 10%
SMILES: O=C(NO)c1ccc(-c2ccn(CCNCc3ccc4c(c3)OCO4)n2)s1

Reference: ChEMBL document CHEMBL1137595, “Identification and optimisation of a series of substituted 5-(1H-pyrazol-3-yl)-thiophene-2-hydroxamic acids as potent histone deacetylase (HDAC) inhibitors” (Bioorg Med Chem Lett, 2007)
